The values that follow are results of earlier work, collected in paper PMC9668914, “Understanding VPAC receptor family peptide binding and selectivity” (Nature Communications, 2022).

Data set [1] has as its target T1, PAC1R (Homo sapiens, UniProt P41586).
T1 construct: An HA signal peptide was inserted in place of the native signal peptide of the receptors; HA signal peptide (replaces the native signal peptide) (N); 3C protease cleavage sites (between FLAG and receptor, and between receptor and His) (internal); expressed in transfected cells; host or cells: COS-7 (transient, PEI)
T1 sequence (P41586 21-468): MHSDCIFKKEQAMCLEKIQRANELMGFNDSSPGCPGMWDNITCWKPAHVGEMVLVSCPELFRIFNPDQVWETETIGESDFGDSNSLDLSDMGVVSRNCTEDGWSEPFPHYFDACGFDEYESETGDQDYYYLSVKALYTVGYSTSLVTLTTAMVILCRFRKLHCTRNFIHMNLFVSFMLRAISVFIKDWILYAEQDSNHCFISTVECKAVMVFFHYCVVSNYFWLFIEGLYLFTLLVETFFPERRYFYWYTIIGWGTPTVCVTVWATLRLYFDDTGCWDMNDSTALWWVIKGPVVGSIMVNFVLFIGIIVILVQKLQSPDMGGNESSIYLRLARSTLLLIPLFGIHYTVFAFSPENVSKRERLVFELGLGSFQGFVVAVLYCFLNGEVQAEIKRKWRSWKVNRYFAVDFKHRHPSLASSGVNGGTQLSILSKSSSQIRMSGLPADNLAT
Also on record: method as in PMID 8995389. The note with it: cited from earlier work.

The test system of data set [2] is VPAC2R. As to conditions: cited from earlier work.

With maxadilan, the agonist selectivity result in data set [1] is recorded as “PAC1R-selective agonist”.

“pituitary adenylate cyclase-activating polypeptide [PACAP]”: the VPAC2R affinity result in data set [2] is “high affinity”.
